Results: patent US20190263796A1, “LIM KINASE INHIBITORS, PHARMACEUTICAL COMPOSITION AND METHOD OF USE IN LIMK-MEDIATED DISEASES” (CELLIPSE, priority 2016, published 2019)

How the values were obtained:
Format in all cases: cell-based
[1] = system: P-MEK/Total MEK; assay: Western blot MEK1 phosphorylation, MV4-11; conditions: for IC50: read-out: IC50 P-MEK/Total MEK; for Selectivity ratio: IC50 P-MEK/Total MEK divided by IC50 Phospho-Ser3-Cofilin/Total Cofilin
Method: (§1) MV4-11 cell line was originally purchased from the American Type Culture Collection (ATCC) or from the Leibniz-Institut Deutsche Sammlung von Mikroorganismen und Zellkulturen GmbH (DSMZ). MV4-11 cells are cultured in RPMI 1640 20% (v/v) FBS supplemented with 100 U/mL^−1 penicillin, 0.1 mg·mL^−1 streptomycin (PAN Biotech P06-07100) and 2 mM Glutamine (Sigma-Aldrich 59202C). Cells were maintained at 37° C. with 5% CO2.
(§2) In a 6 wells plate (Falcon 353046), 2·10^6 cells in 1.5 mL medium are treated for 2 h with compounds. Cells are then collected and cell lysis is performed at 4° C. using RIPA buffer supplemented with protease inhibitors cocktail (Sigma-Aldrich P8340) and phosphatase inhibitors cocktail (Sigma-Aldrich P5726). Following centrifugation 30 min 15000 g 4° C., supernatants are mixed with Laemmli buffer and denaturation is performed by heating 5 min 95° C. 10 μL of samples are subjected to electrophoresis on 15% SDS-PAGE. After electro-transfer (Mini Transblot, Bio-Rad), the PVDF membrane (Merck-Millipore Immobilon P IPVH00010) is blocked with Tris Buffered Saline, pH 7.4 (TBS) with 0.1% Tween 20 and 5% BSA for 1 h at room temperature under agitation. The membrane was rinsed 3 times 10 min at room temperature under agitation with TBS, 0.1% Tween-20 (TBST) and then 1 h at room temperature with anti-phospho-Ser218/222-MEK1 (Merck-Millipore 07-461, 1/1000 dilution) antibody or anti-MEK1 (Merck-Millipore 07-641, 1/1000 dilution) diluted in TBS, 0.1% Tween 20 and 1% BSA. The membrane is then rinsed 3 times 10 min RT under agitation in TBST and incubated for 1 h with anti-rabbit secondary antibody, horseradish peroxidase conjugated (Jackson Immunoresearch #711-036-152) under agitation at room temperature. After three washes 10 min at room temperature in TBST, the detection of total or phosphorylated cofilin was performed using chemiluminescence kit ECL™ Plus (GE Healthcare RPN2132). For each concentration of compound, ratio between phosphorylated cofilin and total cofilin is determined. This ratio is then expressed as percentage of control ratio (i.e., ratio from DMSO treated cells). IC50 P-MEK/Total MEK is then determined.
(§3) Selectivity ratios are calculated by dividing the IC50 P-MEK/Total MEK value (μM) by the IC50 Phospho-Ser3-Cofilin/Total Cofilin value (μM).

[2] = system: Phospho-Ser3-Cofilin/Total Cofilin; assay: Western blot cofilin phosphorylation, MV4-11 (II.6); conditions: MV4-11 cells
Method: as §1
as §2, with “1 h RT under agitation.” for “1 h at room temperature under agitation.”, “temperature with anti-phospho-Ser3-cofilin (Cell Signaling Technology #3313, 1/1000 dilution)” for “temperature with anti-phospho-Ser218/222-MEK1 (Merck-Millipore 07-461, 1/1000 dilution)”, “antibody or anti-cofilin (Cell Signaling Technology #3312, 1/1000 dilution)” for “antibody or anti-MEK1 (Merck-Millipore 07-641, 1/1000 dilution)”, “10 min at room temperature under agitation” for “10 min RT under agitation”, “cells). IC50 Phospho-Ser3-Cofilin/Total Cofilin is then” for “cells). IC50 P-MEK/Total MEK is then”

[3] = system: Phospho-Ser3-Cofilin/Total Cofilin; assay: Western blot cofilin phosphorylation, MOLM-14; conditions: MOLM-14 cells, 2 h
Method: (§4) MOLM-14 cell line was originally purchased from the American Type Culture Collection (ATCC). MOLM-14 cells are cultured in MEM alpha 10% (v/v) FBS supplemented with 100 U/mL^−1 penicillin, 0.1 mg·mL^−1 streptomycin (PAN Biotech P06-07100). Cells were maintained at 37° C. with 5% CO2.
as §2, with “1 h RT under agitation.” for “1 h at room temperature under agitation.”, “temperature with anti-phospho-Ser3-cofilin (Cell Signaling Technology #3313, 1/1000 dilution)” for “temperature with anti-phospho-Ser218/222-MEK1 (Merck-Millipore 07-461, 1/1000 dilution)”, “antibody or anti-cofilin (Cell Signaling Technology #3312, 1/1000 dilution)” for “antibody or anti-MEK1 (Merck-Millipore 07-641, 1/1000 dilution)”, “10 min at room temperature under agitation” for “10 min RT under agitation”, “cells). IC50 Phospho-Ser3-Cofilin/Total Cofilin is then” for “cells). IC50 P-MEK/Total MEK is then”

[4] = system: P-MEK/Total MEK; assay: Western blot MEK1 phosphorylation, MOLM-14; conditions: for IC50: 2 h; for Selectivity ratio: IC50 P-MEK/Total MEK divided by IC50 Phospho-Ser3-Cofilin/Total Cofilin
Method: as §4, §2, §3

[5] = system: MV4-11 cells; assay: Cell proliferation assay (PrestoBlue), MV4-11; conditions: Homo sapiens, 48 h
Method: as §1, with “(ATCC).” for “(ATCC) or from the Leibniz-Institut Deutsche Sammlung von Mikroorganismen und Zellkulturen GmbH (DSMZ).”, “10%” for “20%”
The assay was performed in 96 wells microplate (Greiner Bioone 655090). MV4-11 cells are seeded at 5,000 cells per well. Compounds (or equivalent amounts of DMSO) are then added and cells are allowed to grow for 48 h. Proliferation is evaluated using PrestoBlue assay according to manufacturer recommendations. Results are expressed as GI50 (Growth Inhibition 50%: concentration at which proliferation is inhibited of 50%) in comparison to DMSO controls.

[6] = system: Phospho-Ser3-Cofilin/Total Cofilin; assay: Western blot cofilin phosphorylation, K-562; conditions: Homo sapiens; K562 cells; 2 h
Method: (§5) K-562 cell line was originally purchased from the Leibniz-Institut Deutsche Sammlung von Mikroorganismen und Zellkulturen GmbH (DSMZ). K-562 cells are cultured in RPMI 1640 10% (v/v) FBS supplemented with 100 U/mL^−1 penicillin, 0.1 mg·mL^−1 streptomycin (PAN Biotech P06-07100). Cells were maintained at 37° C. with 5% CO2.
as §2, with “1 h RT under agitation.” for “1 h at room temperature under agitation.”, “temperature with anti-phospho-Ser3-cofilin (Cell Signaling Technology #3313, 1/1000 dilution)” for “temperature with anti-phospho-Ser218/222-MEK1 (Merck-Millipore 07-461, 1/1000 dilution)”, “antibody or anti-cofilin (Cell Signaling Technology #3312, 1/1000 dilution)” for “antibody or anti-MEK1 (Merck-Millipore 07-641, 1/1000 dilution)”, “10 min at room temperature under agitation” for “10 min RT under agitation”, “cells). IC50 Phospho-Ser3-Cofilin/Total Cofilin is then” for “cells). IC50 P-MEK/Total MEK is then”

[7] = system: P-MEK/Total MEK; assay: Western blot MEK1 phosphorylation, K-562; conditions: for IC50: Homo sapiens, read-out: IC50 P-MEK/Total MEK; for Selectivity ratio: IC50 P-MEK/Total MEK divided by IC50 Phospho-Ser3-Cofilin/Total Cofilin
Method: as §5, §2, §3

O=S(=O)(Nc1cccc(-c2nc(CCO)sc2-c2ccnc(Nc3ccccc3)n2)c1F)c1c(F)cccc1F [8 (Na)]
IC50 ([1]; MV4-11 cells, 2 h): > 1 µM
Selectivity ratio ([1]; MV4-11 cells): 6
IC50 ([2]; 2 h): < 0.2 µM
IC50 [3]: < 0.2 µM
IC50 ([4]; MOLM-14 cells, read-out: IC50 P-MEK/Total MEK): > 1 µM
Selectivity ratio ([4]; MOLM-14 cells): 30

CC(C)(C)c1nc(-c2cccc(NS(=O)(=O)c3c(F)cccc3F)c2F)c(-c2ccnc(Nc3ccccc3)n2)s1 [Compound 1, N-(3-(2-(tert-butyl)-5-(2-(phenylamino)pyrimidin-4-yl)thiazol-4-yl)-2-fluorophenyl)-2,6-difluorobenzenesulfonamide]
IC50 ([1]; Homo sapiens, MV4-11, 2 h): > 1 µM
Selectivity ratio ([1]; MV4-11 cells): 125
IC50 ([2]; Homo sapiens, 2 h): < 0.2 µM
IC50 ([3]; Homo sapiens): < 0.2 µM
IC50 ([4]; Homo sapiens, MOLM-14, 2 h, read-out: IC50 P-MEK/Total MEK, MOLM-14 cells): > 1 µM
Selectivity ratio ([4]; MOLM-14 cells): 40
GI50 [5]: ≤ 1 µM
IC50 [6]: 0.2 to 1 µM
IC50 ([7]; K562, 2 h): > 1 µM
Selectivity ratio ([7]; K562 cells): 8

O=S(=O)(Nc1cccc(-c2nc(CCO)sc2-c2ccnc(Nc3ccccc3)n2)c1F)c1c(F)cccc1F [Compound 8, 2,6-difluoro-N-(2-fluoro-3-(2-(2-hydroxyethyl)-5-(2-(phenylamino)pyrimidin-4-yl)thiazol-4-yl)phenyl)benzenesulfonamide]
IC50 ([1]; Homo sapiens, MV4-11 cells, 2 h): > 1 µM
Selectivity ratio ([1]; MV4-11 cells): 4
IC50 ([2]; Homo sapiens, MV4-11, 2 h): 0.2 to 1 µM
IC50 ([3]; Homo sapiens): < 0.2 µM
IC50 ([4]; Homo sapiens, MOLM-14 cells, read-out: IC50 P-MEK/Total MEK): > 1 µM
Selectivity ratio ([4]; MOLM-14 cells): 100
GI50 [5]: ≤ 1 µM
IC50 [6]: < 0.2 µM
IC50 ([7]; K562 cells, 2 h): 0.2 to 1 µM
Selectivity ratio ([7]; K562 cells): 20

CNC(=O)Cc1nc(-c2cccc(NS(=O)(=O)c3c(F)cccc3F)c2F)c(-c2ccnc(Nc3ccccc3)n2)s1 [Compound 9, 2-(4-(3-(2,6-difluorophenylsulfonamido)-2-fluorophenyl)-5-(2-(phenylamino)pyrimidin-4-yl)thiazol-2-yl)-N-methylacetamide]
IC50 ([1]; Homo sapiens, MV4-11, 2 h): > 1 µM
IC50 ([2]; Homo sapiens, 2 h): 0.2 to 1 µM
IC50 ([3]; Homo sapiens): < 0.2 µM
IC50 ([4]; read-out: IC50 P-MEK/Total MEK, MOLM-14 cells): > 1 µM
GI50 [5]: 1 to 5 µM
IC50 [6]: < 0.2 µM
IC50 ([7]; K562, 2 h): > 1 µM
